# Assay results taken from PMC8118275, “Allosteric MAPKAPK2 inhibitors improve plaque stability in advanced atherosclerosis” (PLoS ONE, 2021).
# Experiments:
# [1] = biological target: hMK2 (Homo sapiens, UniProt P49137); assay: hMK2 inhibition; format: biochemical
# [2] = test system: forskolin-induced G6pc mRNA; assay: Forskolin-induced G6pc mRNA in primary mouse hepatocytes (RT-qPCR); format: cell-based; conditions: TBX-1 1 h, then TBX-1 and forskolin 4 h in serum-free media
# Experimental: Primary mouse hepatocytes were isolated from 8- to 12-week-old mice as described previously and cultured in media containing Dulbecco’s Modified Eagle’s Medium (DMEM) (Corning, #10-013-CV), 10% (vol/vol) heat-inactivated FBS, and 1X penicillin-streptomycin. After overnight incubation, the cells were washed twice with PBS, treated with the indicated concentrations of TBX-1 for 1 h, followed by treatment with TBX-1 and forskolin for 4 h in FBS-free media.
# Immunoblot and quantitative RT-PCR (RT-qPCR) assays were conducted as previously described. […]
# Densitometric quantification of the data are shown in the bar graphs (n = 5-6 mice/group; mean ± SEM, p = 0.003, p = 0.001 and p = 0.02, respectively).
# S2 Fig. Blood leukocyte and monocyte counts are similar between control and MK2 inhibitor–treated mice. […] Whole blood was analyzed for the number of total white blood cells (A) and monocytes (B) from a randomly selected subset of TBX-1–treated Ldlr-/- mice (n = 19 mice/group; mean ± SEM). […]
# S3 Fig. Lesional collagen content is increased, whereas macrophage and smooth muscle cell numbers are similar between control and MK2 inhibitor–treated mice. […] Picrosirius red staining was quantified, and collagen content is expressed as percent of total lesion area (n = 7-10 mice/group; mean ± SEM, p = 0.009 and p = 0.03, respectively). […]
# [3] = Pharmacokinetics in CD-1 mice after single oral and intravenous administration; format: in vivo, mouse; conditions: for Clearance (Cl) / Cmax / F (oral bioavailability) / Half-life: CD-1 mice, TBX-1 1 mpk iv and 5 mpk po, TBX-2 1 mpk iv and 3 mpk po; for plasma half-life: mice, intravenous and oral administration
# Experimental: The pharmacokinetics of the compounds were evaluated in CD-1 mice by single oral and intravenous routes of drug administration. The mice were fasted overnight before oral-gavage dosing of the compounds. The solutions used for PK studies were prepared by dissolving the compounds in 5% Solutol HS 15 in water. Following oral or intravenous administration of compounds, blood samples were collected at 0.08, 0.25, 0.5, 1, 2, 4, 6, 8, 12, and 24 h after dosing. Blood samples were centrifuged to separate plasma, and compound concentrations were determined by LC-MS. Dosing was well tolerated following oral and intravenous administration of both compounds, and no abnormal behavior was observed.
# [4] = test system: WD-fed Ldlr-/- mice; assay: Metabolism, plasma lipids, blood cells and tolerability in WD-fed Ldlr-/- mice with established atherosclerosis; format: in vivo, mouse; conditions: ~30 mg/kg body weight per day in WD for 6 weeks; for blood leukocyte (total white blood cell) count / blood monocyte count: versus control
# Experimental: (§1) Eight-week-old male Ldlr^-/- mice on the C57BL/6J background were purchased from Jackson Laboratory (stock # 002207) and fed a Western-type Diet (WD) for 16 weeks (Envigo, TD.88137; 21.2% fat, 0.2% cholesterol, 48.5% carbohydrate, and 17.3% protein by weight). Between weeks 10–16 of feeding, the WD of the experimental group was supplemented with TBX-1 or TBX-2 (600 mg/kg diet) to achieve a dose of ∼30 mg/kg body weight per day, whereas control mice remained on regular WD. The study included four separate cohorts, each comprised of 5 to 10 mice per group. The mice were randomly assigned to the different cohorts. Fasting blood glucose was measured in mice that were fasted for 5 h, with free access to water, using a glucose meter. Insulin tolerance test was performed in 5 h-fasted mice by assaying blood glucose at various times after injection of insulin (0.7 IU/kg body wt i.p.). Plasma insulin levels were measured in mice that were fasted for 5 h using an ultra-sensitive mouse insulin ELISA kit (Crystal Chem). At the time of harvest, mice were euthanized using isoflurane, and blood was then removed by left ventricular puncture. Animals were provided with food and water ad libitum and housed in standard cages at 22°C in a 12-12h light-dark cycle in a barrier facility. The Columbia University IACUC provided ethical approval for these studies, and procedures were conducted in accordance with approved animal protocols.
# Total plasma cholesterol and triglyceride levels were measured using commercially available kits (Wako Diagnostics). Plasma lipoproteins were analyzed by running 200 μl of pooled plasma onto a fast protein liquid chromatography system consisting of 2 Superose 6 columns connected in series (Amersham Pharmacia Biotech) as described previously.
# [5] = test system: MK2 activity (phospho-hsp25); assay: Phospho-hsp25 (MK2 substrate) in liver and aortic root lesions of WD-fed Ldlr-/- mice; format: in vivo, mouse; conditions: ~30 mg/kg body weight per day in WD for 6 weeks
# Experimental: Eight-week-old male Ldlr^-/- mice on the C57BL/6J background were purchased from Jackson Laboratory (stock # 002207) and fed a Western-type Diet (WD) for 16 weeks (Envigo, TD.88137; 21.2% fat, 0.2% cholesterol, 48.5% carbohydrate, and 17.3% protein by weight). Between weeks 10–16 of feeding, the WD of the experimental group was supplemented with TBX-1 or TBX-2 (600 mg/kg diet) to achieve a dose of ∼30 mg/kg body weight per day, whereas control mice remained on regular WD. The study included four separate cohorts, each comprised of 5 to 10 mice per group. The mice were randomly assigned to the different cohorts. Fasting blood glucose was measured in mice that were fasted for 5 h, with free access to water, using a glucose meter. […] Plasma insulin levels were measured in mice that were fasted for 5 h using an ultra-sensitive mouse insulin ELISA kit (Crystal Chem). […]
# Total lesion area and necrotic area analysis were carried out on hematoxylin and eosin (H&E)-stained aortic root lesional cross sections as previously described. Briefly, total lesion area (from internal elastic lamina to the lumen) and acellular/anuclear areas (negative for hematoxylin-positive nuclei) per cross section were quantified by taking the average of 6 sections spaced 30 μm apart beginning at the base of the aortic root. […] Three slides, each with 2 sections, were assessed for each mouse. […]
# [6] = test system: aortic root lesions of WD-fed Ldlr-/- mice; assay: Aortic root atherosclerotic lesion analysis and in situ efferocytosis in WD-fed Ldlr-/- mice; format: in vivo, mouse; conditions: for total necrotic area: aortic root; for collagen content of the lesions / fibrous-cap thickness: picrosirius red; for collagen content of the lesions: percent of total lesion area; for fibrous-cap thickness: ratio of cap thickness to lesion size
# Experimental: as §1
# Total lesion area and necrotic area analysis were carried out on hematoxylin and eosin (H&E)-stained aortic root lesional cross sections as previously described. Briefly, total lesion area (from internal elastic lamina to the lumen) and acellular/anuclear areas (negative for hematoxylin-positive nuclei) per cross section were quantified by taking the average of 6 sections spaced 30 μm apart beginning at the base of the aortic root. Necrotic areas were defined as anuclear areas based on absence of hematoxylin staining. Collagen staining was performed using picrosirius red as per the manufacturer’s instructions (Polysciences Inc.), and fibrous cap thickness was quantified from 3 distinct regions of the plaque and scored per lesion size as previously described. For immunofluorescence staining, frozen sections were fixed in cold acetone for 10 minutes. After blocking for 1 hour in serum-free protein blocking buffer (DAKO, catalog X0909), sections were incubated overnight at 4°C with anti–phospho-hsp25 (CST, 1:200), anti-Mac2 (1:10,000), and smooth-muscle α actin (SMαA, 1:150) antibodies, rinsed with PBS three times, incubated with fluorescently-labeled secondary antibodies for 2 hours, and counterstained with DAPI. Three slides, each with 2 sections, were assessed for each mouse.
# Experimentation was carried out as previously described. In brief, acetone-fixed aortic root sections were incubated with TUNEL (Roche) followed by staining with anti-Mac2 (1:10,000) to label macrophages. Apoptotic cells were then determined to be either macrophage-associated (colocalizing or juxtaposed with macrophages) or free (not associated with macrophages). Data were plotted as a ratio of associated-to free cells, which is a measure of efferocytosis.
# Chain of hMK2 (P49137 whole entry): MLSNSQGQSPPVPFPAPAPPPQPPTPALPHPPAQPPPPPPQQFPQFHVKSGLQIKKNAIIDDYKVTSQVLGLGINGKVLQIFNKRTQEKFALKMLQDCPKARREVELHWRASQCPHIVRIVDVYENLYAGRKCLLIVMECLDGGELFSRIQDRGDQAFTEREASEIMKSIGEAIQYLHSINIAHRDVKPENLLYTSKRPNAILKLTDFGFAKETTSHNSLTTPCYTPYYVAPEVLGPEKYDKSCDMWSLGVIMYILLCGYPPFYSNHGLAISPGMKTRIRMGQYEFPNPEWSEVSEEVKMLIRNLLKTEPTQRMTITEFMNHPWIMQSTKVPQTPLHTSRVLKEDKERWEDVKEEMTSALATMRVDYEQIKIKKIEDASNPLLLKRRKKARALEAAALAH
SMILES,IC50 [1],forskolin-induced G6pc mRNA [2],Clearance (Cl) [3],Cmax [3],F (oral bioavailability) [3],Half-life [3],plasma half-life [3],blood leukocyte (total white blood cell) count [4],blood monocyte count [4],LDL-cholesterol (fast protein liquid chromatography of plasma) [4],VLDL-cholesterol (fast protein liquid chromatography of plasma) [4],"phospho-hsp25 levels in atherosclerotic lesions ([5]; aortic root sections, MFI within Mac2+ area)","phosphorylation of hsp25 in liver ([5]; liver extracts, immunoblot)",total necrotic area [6],collagen content of the lesions [6],fibrous-cap thickness [6]
CN(C)[C@@H]1CCN(c2ccc3c(c2)Cn2cc(-c4ccc(C#N)cc4)cc2-c2nncn2-3)C1 [TBX-1],67 nM,inhibited forskolin-induced G6pc mRNA in a dose-dependent manner,24.8 mL/min/kg,58 nM,20.0%,2.7 h,2.7 h,similar,similar,reduced,reduced,significantly reduced,efficiently reduced,significantly reduced,significantly increased,significantly increased
CN(C)C[C@H]1CC(=O)N(c2ccc3c(c2)Cn2cc(-c4ccc(C#N)cc4)cc2-c2nccn2-3)C1 [TBX-2],19 nM,–,12.2 mL/min/kg,296 nM,89.1%,3.1 h,3.1 h,similar,similar,reduced,reduced,–,–,significantly reduced,significantly increased,significantly increased
